Where two headings read alike, the source gives them in different places.

This note sets out measurements from patent publication US11680056B2, “MK2 inhibitors and uses thereof” (Xinthera, Inc., priority 2021, dated 2023).

One assay deals with p38a/PRAK (Homo sapiens (Human), UniProt Q16539). As to the kind of experiment: p38a/PRAK biochemical assay: activation of PRAK by p38, FITC-HSP27 peptide phosphorylation (IMAP FP). The following applies: 10-point 1:3 dilution, top dose 300 μM; 60 pM active p38a, 1 nM inactive PRAK, 10 μM ATP, 2 h incubation; read-out: p38a/PRAK Enzyme pIC50 (converted). The method in brief:
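GST-tagged MK2 (F46–H400) and PRAK (M1–Q471), expressed in E. coli, activated by p38 and phosphorylate FITC-HSP27 peptide over 2 h with compound; readout by IMAP fluorescence polarisation (ex 485/em 528 nm). Ten-point 1:3 dilutions, top dose 1 μM for MK2 and 300 μM for PRAK. IC50 after vehicle normalisation; selectivity = IC50(PRAK)/IC50(MK2).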

Another assay has as its target p38a/MK2 (Homo sapiens (Human), UniProt P49137+Q16539). The experiment in a line: p38a/MK2 biochemical assay: activation of MK2 by p38, FITC-HSP27 peptide phosphorylation (IMAP FP). The conditions noted are these: 10-point 1:3 dilution, 60 pM active p38a, 1 nM inactive MK2, 10 μM ATP, 2 h incubation.
Where [1] appears, read: top dose 1 μM, read-out: p38a/MK2 (1 μM) Enzyme pIC50 (converted).
Setting [2] is: top dose 10 μM, read-out: p38a/MK2 (10 μM) Enzyme pIC50 (converted).

Sequence of p38a/PRAK (Q16539 whole entry): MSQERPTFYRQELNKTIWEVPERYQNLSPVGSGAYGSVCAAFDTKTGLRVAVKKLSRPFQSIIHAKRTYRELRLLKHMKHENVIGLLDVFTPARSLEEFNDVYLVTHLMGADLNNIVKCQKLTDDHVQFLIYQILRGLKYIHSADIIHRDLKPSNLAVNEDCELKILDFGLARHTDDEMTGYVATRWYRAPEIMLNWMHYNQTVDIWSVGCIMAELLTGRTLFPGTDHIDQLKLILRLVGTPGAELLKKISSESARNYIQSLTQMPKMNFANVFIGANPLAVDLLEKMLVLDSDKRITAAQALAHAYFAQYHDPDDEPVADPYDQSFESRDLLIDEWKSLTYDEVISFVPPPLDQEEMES
Sequence of p38a/MK2 (P49137 46-400): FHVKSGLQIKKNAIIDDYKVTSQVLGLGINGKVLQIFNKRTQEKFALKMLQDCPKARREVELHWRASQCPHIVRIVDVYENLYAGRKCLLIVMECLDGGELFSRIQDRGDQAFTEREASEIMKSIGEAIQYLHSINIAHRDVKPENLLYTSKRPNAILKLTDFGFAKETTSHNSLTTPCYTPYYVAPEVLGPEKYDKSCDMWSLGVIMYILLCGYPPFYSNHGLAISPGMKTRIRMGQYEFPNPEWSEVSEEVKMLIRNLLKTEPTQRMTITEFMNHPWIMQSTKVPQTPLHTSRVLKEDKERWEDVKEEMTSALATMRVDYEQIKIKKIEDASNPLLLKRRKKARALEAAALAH
Sequence of p38a/MK2 (Q16539 whole entry): as the sequence (Q16539 whole entry) above

In the case of `Cc1cnc(-n2ccc(C(C)(C)O)n2)c(C)c1-n1c(C)cc(OCc2ncc(F)cc2F)c(Cl)c1=O` (single isomer, unassigned) [Example 50B, rel-3-chloro-4-[(3,5-difluoropyridin-2-yl)methoxy]-2′-[3-(2-hydroxypropan-2-yl)pyrazol-1-yl]-3′,5′,6-trimethyl-[1,4′-bipyridin]-2-one], the IC50 on p38a/PRAK is more than 316 µM; at p38a/MK2 (setting [1]), more than 1 µM.
Taken in the same sequence, the figures for `[2H]C([2H])([2H])C(O)(c1nccc(-c2ncc(C)c(-n3c(C)cc(OCc4ncc(F)cc4F)c(Cl)c3=O)c2F)n1)C([2H])([2H])[2H]` (single isomer, unassigned) [Example 66A, rel-3-chloro-4-((3,5-difluoropyridin-2-yl)methoxy)-3′-fluoro-2′-(2-(2-hydroxypropan-2-yl-1,1,1,3,3,3-d6)pyrimidin-4-yl)-5′,6-dimethyl-2H-[1,4′-bipyridin]-2-one] were more than 316 µM and more than 0.1 µM.
Regarding `Cc1cnc(-c2ccnc(C(C)(C)C(F)F)n2)cc1-n1c(C)cc(OCc2ncc(F)cc2F)c(Cl)c1=O` (atropisomer, axis not shown) [Example 5, 3-chloro-2′-[2-(1,1-difluoro-2-methylpropan-2-yl)pyrimidin-4-yl]-4-[(3,5-difluoropyridin-2-yl)methoxy]-5′,6-dimethyl-[1,4′-bipyridin]-2-one], at p38a/PRAK, the IC50 was 3.16 µM. Besides, on p38a/MK2 (top dose 10 μM), the “p38a/MK2 (10 μM) Enzyme pIC50” value was 7.8.
For the molecule `Cc1cnc(-c2ccc3c(n2)C(C)(O)CC3)cc1-n1c(C)cc(OCc2ncc(F)cc2F)c(Cl)c1=O` (single isomer, unassigned) [Example 32C], the IC50 at p38a/PRAK is 6.31 µM; on p38a/MK2 (setting [2]), 0.0631 µM.
Regarding `Cc1cnc(-c2ccc(F)c(C(C)(C)O)n2)cc1-n1c(C)cc(OCc2ncc(F)cc2F)c(Cl)c1=O` (single isomer, unassigned) [Example 24B, rel-3-chloro-4-[(3,5-difluoropyridin-2-yl)methoxy]-1-[5′-fluoro-6′-(2-hydroxypropan-2-yl)-5-methyl-[2,2′-bipyridin]-4-yl]-6-methylpyridin-2-one], the values for the IC50 on p38a/PRAK and on p38a/MK2 (setting [2]) were more than 316 µM and 1.58 µM, respectively.
Taken in the same sequence, the figures for `Cc1cnnc(COc2cc(C)n(-c3cc(-c4ccnc(C(C)(C)O)n4)ncc3C)c(=O)c2Cl)c1` [Example 28A, rel-3-chloro-2′-[2-(2-hydroxypropan-2-yl)pyrimidin-4-yl]-5′,6-dimethyl-4-[(5-methylpyridazin-3-yl)methoxy]-[1,4′-bipyridin]-2-one] were more than 316 µM and 3.98 µM.
For `Cc1cnc(-c2nc(C(C)(C)O)n(C)n2)cc1-n1c(C)cc(OCc2ncc(F)cc2F)c(Cl)c1=O` (single isomer, unassigned) [Example 42B, rel-3-chloro-4-[(3,5-difluoropyridin-2-yl)methoxy]-2′-[5-(2-hydroxypropan-2-yl)-1-methyl-1,2,4-triazol-3-yl]-5′,6-dimethyl-[1,4′-bipyridin]-2-one], the IC50 on p38a/PRAK is more than 316 µM; at p38a/MK2 (setting [1]), more than 1 µM.
Take `Cc1cnc(-c2cccc([C@H](O)CO)n2)cc1-n1c(C)cc(OCc2ncc(F)cc2F)c(Cl)c1=O` (atropisomer, axis not shown) [Example 16, 3-chloro-4-[(3,5-difluoropyridin-2-yl)methoxy]-2′-[6-(1,2-dihydroxyethyl)pyridin-2-yl]-5′,6-dimethyl-[1,4′-bipyridin]-2-one]: the IC50 at p38a/PRAK was 15.8 µM. In addition, the “p38a/MK2 (10 μM) Enzyme pIC50” value at p38a/MK2 (top dose 10 μM) is 7.4.
`[2H]C([2H])(Oc1cc(C)n(-c2cc(-c3ccnc(C(C)(C)O)c3F)ncc2C)c(=O)c1Cl)c1ncc(F)cc1F` (single isomer, unassigned) [Example 64A, rel-3-chloro-4-[(3,5-difluoropyridin-2-yl)(2H2)methoxy]-1-[3′-fluoro-2′-(2-hydroxypropan-2-yl)-5-methyl-[2,4′-bipyridin]-4-yl]-6-methylpyridin-2-one]: the IC50 is 2 µM at p38a/PRAK and 0.002 µM on p38a/MK2 (setting [1]).
Consider `Cc1cnc(-c2ccnc([C@@](C)(O)C3CC3)n2)cc1-n1c(C)cc(OCc2ncc(F)cc2F)c(Cl)c1=O` (single isomer, unassigned) [Example 6D, rel-3-chloro-2′-[2-(1-cyclopropyl-1-hydroxyethyl)pyrimidin-4-yl]-4-[(3,5-difluoropyridin-2-yl)methoxy]-5′,6-dimethyl-[1,4′-bipyridin]-2-one], for which the IC50 at p38a/PRAK is more than 316 µM; on p38a/MK2 (setting [2]), 2.51 µM.
In the case of `Cc1cnc(-c2ccnc(C(C)(C)C(F)F)n2)cc1-n1c(C)cc(OCc2ncc(F)cc2F)c(Cl)c1=O` (single isomer, unassigned) [Example 5A, rel-3-chloro-2′-[2-(1,1-difluoro-2-methylpropan-2-yl)pyrimidin-4-yl]-4-[(3,5-difluoropyridin-2-yl)methoxy]-5′,6-dimethyl-[1,4′-bipyridin]-2-one], the IC50 is 2.51 µM at p38a/PRAK and 0.00631 µM on p38a/MK2 (setting [2]).
On the same counts, the results for `Cc1cnc(-c2ccc3c(n2)C(C)(O)CC3)cc1-n1c(C)cc(OCc2ncc(F)cc2F)c(Cl)c1=O` (single isomer, unassigned) [Example 32B] are more than 316 µM and 1 µM.
Taken in the same sequence, the figures for `Cc1cc(COc2cc(C)n(-c3cc(-c4ccnc(C(C)(C)O)n4)ncc3C)c(=O)c2Cl)ncc1F` (single isomer, unassigned) [Example 22A, rel-3-chloro-4-[(5-fluoro-4-methylpyridin-2-yl)methoxy]-2′-[2-(2-hydroxypropan-2-yl)pyrimidin-4-yl]-5′,6-dimethyl-[1,4′-bipyridin]-2-one] were 15.8 µM and 0.0316 µM.
On to `Cc1cnc(-n2ccc(C(C)(C)O)n2)cc1-n1c(C)cc(OCc2ncc(F)cc2Cl)c(Cl)c1=O` (single isomer, unassigned) [Example 47B, rel-3-chloro-4-[(3-chloro-5-fluoropyridin-2-yl)methoxy]-2′-[3-(2-hydroxypropan-2-yl)pyrazol-1-yl]-5′,6-dimethyl-[1,4′-bipyridin]-2-one], for which the IC50 was more than 316 µM on p38a/PRAK and more than 1 µM on p38a/MK2 (setting [1]).
Regarding `Cc1cnc(-c2nc(C(C)(C)O)cs2)cc1-n1c(C)cc(OCc2ncc(F)cc2F)c(Cl)c1=O` (atropisomer, axis not shown) [Example 2, 3-chloro-4-[(3,5-difluoropyridin-2-yl)methoxy]-2′-[4-(2-hydroxypropan-2-yl)-1,3-thiazol-2-yl]-5′,6-dimethyl-[1,4′-bipyridin]-2-one], the IC50 at p38a/PRAK is 3.98 µM. Moreover, the “p38a/MK2 (10 μM) Enzyme pIC50” value on p38a/MK2 (top dose 10 μM) is recorded as 7.5.
For `Cc1cnc(-c2cccc([C@](C)(O)CO)n2)cc1-n1c(C)cc(OCc2ncc(F)cc2F)c(Cl)c1=O` (atropisomer, axis not shown) [Example 14, 3-chloro-4-[(3,5-difluoropyridin-2-yl)methoxy]-2′-[6-(1,2-dihydroxypropan-2-yl)pyridin-2-yl]-5′,6-dimethyl-[1,4′-bipyridin]-2-one], the IC50 at p38a/PRAK is 20 µM. For the same molecule, the “p38a/MK2 (10 μM) Enzyme pIC50” value at p38a/MK2 (top dose 10 μM) is 7.7.
In the case of `Cc1cnc(-c2ccnc(N(C)CCO)n2)cc1-n1c(C)cc(OCc2ncc(F)cc2F)c(Cl)c1=O` (single isomer, unassigned) [Example 43A, rel-3-chloro-4-[(3,5-difluoropyridin-2-yl)methoxy]-2′-{2-[(2-hydroxyethyl)(methyl)amino]pyrimidin-4-yl}-5′,6-dimethyl-[1,4′-bipyridin]-2-one], the IC50 at p38a/PRAK was 2.51 µM; on p38a/MK2 (setting [1]), 0.0126 µM.
On the same counts, the results for `Cc1cnc(-c2ccnc(C3(O)CC3)n2)cc1-n1c(C)cc(OCc2ncc(F)cc2F)c(Cl)c1=O` (single isomer, unassigned) [Example 3A, rel-3-chloro-4-[(3,5-difluoropyridin-2-yl)methoxy]-2′-[2-(1-hydroxycyclopropyl)pyrimidin-4-yl]-5′,6-dimethyl-[1,4′-bipyridin]-2-one] are 3.98 µM and 0.01 µM.
In the case of `Cc1cnc(-c2ccc3c(n2)C(C)(O)CC3)cc1-n1c(C)cc(OCc2ncc(F)cc2F)c(Cl)c1=O` (single isomer, unassigned) [Example 32D], the results for the IC50 at p38a/PRAK and on p38a/MK2 (setting [2]) were more than 316 µM and 1.26 µM, respectively.
Take `Cc1cnc(-c2ccnc(C3(O)CCOCC3)n2)cc1-n1c(C)cc(OCc2ncc(F)cc2F)c(Cl)c1=O` (single isomer, unassigned) [Example 39B, rel-3-chloro-4-((3,5-difluoropyridin-2-yl)methoxy)-2′-(2-(4-hydroxytetrahydro-2H-pyran-4-yl)pyrimidin-4-yl)-5′,6-dimethyl-2H-[1,4′-bipyridin]-2-one]: the IC50 is more than 316 µM on p38a/PRAK and more than 1 µM at p38a/MK2 (setting [1]).
On the same counts, the results for `[2H]C([2H])(Oc1cc(C)n(-c2c(C)cnc(-c3ccnc(C(C)(C)O)c3F)c2F)c(=O)c1Cl)c1ncc(F)cc1F` (single isomer, unassigned) [Example 65A, rel-3-chloro-1-[3,3′-difluoro-2′-(2-hydroxypropan-2-yl)-5-methyl-[2,4′-bipyridin]-4-yl]-4-[(3,5-difluoropyridin-2-yl)(2H2)methoxy]-6-methylpyridin-2-one] are 0.2 µM and 0.00398 µM.
On to `Cc1cnc(-c2nc(C(C)(C)O)cs2)cc1-n1c(C)cc(OCc2ncc(F)cc2F)cc1=O` (atropisomer, axis not shown) [Example 8, 4-[(3,5-difluoropyridin-2-yl)methoxy]-2′-[4-(2-hydroxypropan-2-yl)-1,3-thiazol-2-yl]-5′,6-dimethyl-[1,4′-bipyridin]-2-one], for which the IC50 at p38a/PRAK is more than 316 µM. On p38a/MK2 (top dose 10 μM), the “p38a/MK2 (10 μM) Enzyme pIC50” value is reported as less than 5.0.
